Results from patent EP0231151A2, “Immunosuppressant agents” (priority 1986, dated 1987).
Where two headings read alike, the source gives them in different places.

How the values were obtained:
[1] = Acute toxicity (LD50) in the mouse; settings: in vivo; for LD50 at 168 h: iv, over 7 days, read-out: acute LD₅₀ (mouse) i.v.; for LD50 at 336 h: po, over 14 days, read-out: acute LD₅₀ (mouse) p.o.
Description: (§1) Toxicity data for some of the comounds of the invention have been published. Such data may be determined by routine experimentation. TOXICITY DATA for representative compounds NTEL = No toxic effect level.

[2] = No toxic effect level (NTEL), repeated oral dosing in rats; settings: rat, in vivo, 4 weeks, p.o.
Description: as §1

[3] = system: grafted neonatal heart tissue; test: Grafting of neonatal heart tissue into ears of mice, graft survival with co-administered cyclosporine; type: in vivo, mouse; settings: 0.05 mg/kg/day s.c. with cyclosporine 18 mg/kg/day s.c.; group of 10 animals
Description: In this in-vivo test the rejection time of grafted neonatal heart tissue was increased by the compounds of the invention.
In one method a small incision was made at the base of the ear of a C 57 BL mouse (H-2^b). Blunt or fine tweezers were used to loosen the dorsal layer of skin from the cartilaginous layer in order to form a pocket. One half of a heart taken from 1 to 2 day old Balb/c mouse (H-2^d) was then inserted in the pocket. At 6 days post grafting and every week thereafter, the heart graft survival was monitored with microelectrodes placed on each side of the graft. A dynograft recorded was used to record electrical activity emanating from the graft. The end point of graft survival was taken as the time when the electrical activity was lost. Untreated mice rejected the implant after 8 1/2 days.
In this model effective immunosuppression was considered to have occurred if the time to rejection was increased to at least 17 days. […] With the compound A at 0.05 mg/kg/day, s.c.), 50 per cent of the heart allografts in a group of 10 animals were active on day 17.

[4] = system: splenic lymphocytes forming lytic antibodies to the SRBC; test: Antibody producing cell development in the mouse (PFC test), plaque forming cells to SRBC; type: in vivo
Description: These methods permit the quantitation of the number of splenic lymphocytes forming lytic antibodies to the SRBC and the distinction between IgM and IgG producing cells.
The intravenous injection of SRBC (5 x 10⁷) in 0.2 ml i.v. served as the primary immunization antigen source in the mouse studies. The mice in these studies were female C57 black of ca 20 grams body weight. All animals were pretreated with the respective compounds for one day prior to the SRBC treatment and daily treated thereafter at 11.00 h for a total of 6 days. The spleens were removed for the determination of PFC numbers to the SRBC antigen.
The spleen cells were suspended in Hepes-buffered Balanced Salt Solution (HBSS), washed once, and resuspended in a volume adjusted according to the expected number of plaque forming cells. The direct quantitiation of IgM-PFC was performed by plaquing 0.1 ml of the diluted splenic cells with 0.025 ml of SRBC (30%), 0.3 ml Agar (0.5% in HBSS), and 0.025 ml complement (guinea pig serum) and plated on Petri dishes. An indirect method of IgG-PFC quantitation was performed with a monoclonal antibody to the IgM (1:4 dilution) plus an anti-gama polyspecific antiserum (1:800) to permit complement fixation. The splenic lymphocytes from each mouse spleen were plated to quantitate IgM- and IgG-PFC in duplicate. All plates were incubated for 4 hours at 37°C and then stored overnight in humidified chambers at 4°C. Plaques were counted by hand with the use of a plaque counter.

[5] = system: basal serum prolactin levels; test: Lowering basal serum prolactin levels in the male rat (prolactin secretion inhibition); type: in vivo; settings: lowering basal serum prolactin levels, male rat, after 4 hours; read-out: ID50 after 4 hours
Description: Many of the above mentioned compounds are published as prolactin secretion inhibitors, some of which are extremely potent and have long lasting activity. The potency of the compounds as prolactin secretion inhibitors can be determined in standard tests, e.g. by lowering basal serum prolactin levels in the male rat.
Results with representative compounds include:-

[6] = system: Local graft versus host (GvH); test: Local graft versus host (GvH) reaction in the rat, lymph node weight; type: in vivo
Description: Spleen cells (ca 1 x 10⁷) are taken from 6 week old Wistar/Furth/(W/F) rats and are injected into the left hind paw of female (F 344 x WF) F1 rats weighing about 100 g. The rats had been treated daily with the compound from 7 days before the injection and are treated daily for 3 days thereafter. The difference in weight between the left and right lymph nodes is taken as the parameter for evaluating the reaction.

[7] = biological target: 5-HT sensitive adenylate cyclase; test: Activation of 5-HT sensitive adenylate cyclase of the liver fluke (method of Markstein); type: biochemical; settings: adenylate cyclase stimulated by serotonin
Description: A group of compounds comprises compounds which are D₂ agonists without any antagonistic activity. Another group of compounds includes those compounds which are serotonin agonists, e.g. as indicated in standard in vitro binding tests and by activation of 5-HT sensitive adenylate cyclase of the liver fluke according to the method of R.Markstein, Neurochemical effects of some ergot derivatives: A basis for their antiparkinson actions. J.Neural transm 51:39, (1981).
Examples of such compounds include compound C and pergolide. Compound C, pergolide and 5-HT have efficacies of 90,80 and 100 respectively and pD₂ [log EC₅₀] of 6.9, 6.9 and 7.7 respectively in this test on adenylate cyclase stimulated by serotonin.

[8] = system: immuno-responsiveness of effector lymphocytes to histoincompatible (allogenic) lymphocytes; test: Mixed lymphocyte reaction test in mice, 2nd variant (both strains treated, ex vivo 3H-thymidine incorporation); settings: at least 7 days
Description: The compounds furthermore inhibit the immuno-responsiveness of effector lymphocytes to histoincompatible (allogenic) lymphocytes in a variante of the above two way MLR (mixed lymphocyte reaction) test.
Mice of two histo-incompatible strains (Balb/c and CBA) (6-8 weeks old) were once daily treated s.c. with a compound of the invention for at least 7 days. The spleens are removed 3 hours after the last drug administration. The MLR test is effected with 0.5 x 10⁶ spleen cells from Balb/c mice and 0.5 x 10⁶ spleen cells from CBA mice the latter having been irradiated with 2000 rad. The spleen cells of the Balb-c mice are incubated with the allogenic CBA-spleen cells for 4 days. Radioactive thymidine is added and after 16 hours the incorporation of ³H-thymidine in the DNA of the mouse spleen cells was measured.

[9] = system: ornithine decarboxylase (ODC); test: Biosynthetic rate in the rat: ornithine decarboxylase activity in tissues after Complete Freund's adjuvant; type: in vivo; settings: Freund's adjuvant treated rats
Description: The marker used in this study to determine the biosynthetic rate of the lymphoid and endocrine tissues was ornithine decarboxylase (ODC). ODC, the rate-limiting enzyme in polyamine biosynthesis, serves as a early marker of G₁ cell cycle progression of proliferating tissues and increased biosynthesis in secretory tissues, in response to trophic or stimulatory substances. There is a peak activity of ODC subsequent to stimulation in vivo within 4 hours - making this enzyme a useful intracellular marker for understanding the relationship between agonists and target tissue response. The ODC activity of lymphoid tissues appears to relate to a functional response to the immune system.
In a typical test method KFM male rats (150 - 175 g) were treated with the compound of the invention one day prior to the administration of Complete Freund's adjuvant in analogous manner to that described above. Administration of the compound was repeated once time per day afterwards. Two days later the animals were decapitated, the tissues removed and frozen in liquid nitrogen. The ODC activities (pmol/30 min./mg protein) are measured. The ODC activity was determined by measuring the liberation of 14CO₂ from L-(1-14C)-ornithine as described by Snyder et al Proc.Natl.Acad.Sci.60:1420, 1968.

[10] = No toxic effect level (NTEL) / tolerability, repeated oral dosing in dogs; settings: dog, in vivo, p.o.
Description: as §1

[11] = system: lymphocyte responsiveness to allogenic stimulation; test: Mixed lymphocyte reaction test in mice, 1st variant (responder mice treated, ex vivo 3H thymidine incorporation); settings: 5 mg/kg s.c., five days
Description: The ability of the compounds of the invention to reduce lymphocyte responsiveness to allogenic stimulation is measured in the mixed lymphocyte reaction test (MLR) wherein irradiated allogenic cells from stimulator mice induce a proliferative response in responder histo-incompatible cells.
Responder mice (Balb/c female, 8-10 weeks old) are treated sub-cutaneously for five days with the compounds of the invention. Equal numbers of murine stimulator lymphocytes (from stimulator, CBA, mice; lymphocytes irradiated in vitro with 200 R) and effector lymphocytes from the treated animals or control animals are incubated for five days. The 3H thymidine incorporated into lymphocyte DNA was used as a parameter for cell proliferation in response to an allogenic stimulus. [See S.S.Rich et al, J.Exp.Medicine, (1974), 140, 1588-1693].

[12] = combination: 36 mg/kg/day s.c. of Cyclosporine with 0.1 mg/kg/day of compound A

CCCN1CC(NS(=O)(=O)N(CC)CC)CC2Cc3c(O)cccc3CC21 (centres unmarked) [Compound A]
LD50 at 168 h [1]: 17 mg/kg
LD50 at 336 h [1]: 357 mg/kg
NOAEL at 672 h [2]: 0.2 to 0.57 mg/kg/day
heart allografts active on day 17 [3]: 50 per cent
percent change from control at 1 mg/kg/day ([4]; Mus musculus, Splenic lymphocyte, sc, 144 h, Test A, 1.0 mg/kg/day s.c., 6 days, read-out: IgG % of control): -71.6%
percent change from control at 1 mg/kg/day ([4]; Mus musculus, Splenic lymphocyte, sc, 144 h, Test A, 1.0 mg/kg/day s.c., 6 days, read-out: IgM % of control): -55.4%
reduction of IgG titre [4, 12]: 79.1%
reduction of IgM titre [4, 12]: 62.6%
ED50 [5]: 0.03 mg/kg
Weight lymph node ([6]; 0.01 mg/kg/day, control ca 63 mg): ca 50 mg
Percentage Difference ([6]; 0.01 mg/kg/day, versus control ca 63 mg): -21%

CCCN1C[C@@H](NS(=O)(=O)N(CC)CC)C[C@@H]2c3cccc4[nH]cc(c34)C[C@H]21 [Compound C, 6-n-propyl-8α-(N,N,-diethylsulphamoylamino)-ergoline-I]
LD50 at 168 h [1]: 45 mg/kg
LD50 at 336 h [1]: 69 mg/kg
NOAEL at 672 h [2]: 0.19 mg/kg/day
pD₂ [log EC₅₀] [7]: 6.9
Change from control ([8]; 0.05 mg/kg s.c. once daily): -71%
Change from control ([8]; 0.5 mg/kg s.c. once daily): -50%
Change from control ([8]; 5 mg/kg s.c. once daily): -20%
ODC activities, Adrenal Medulla ([9]; 0.01 mg/kg): 17.10 pmol/30 min./mg protein
ODC activities, Anterior Pituitary ([9]; 0.01 mg/kg): 32.60 pmol/30 min./mg protein
ODC activities, Bone Marrow ([9]; 0.01 mg/kg): 17.40 pmol/30 min./mg protein
ODC activities, Lymph Nodes ([9]; 0.01 mg/kg): 43.10 pmol/30 min./mg protein
ODC activities, Spleen ([9]; 0.01 mg/kg): 12.14 pmol/30 min./mg protein
ODC activities, Thymus ([9]; 0.01 mg/kg): 98.80 pmol/30 min./mg protein
ODC activities, Adrenal Medulla ([9]; 0.1 mg/kg): 180.0 pmol/30 min./mg protein
ODC activities, Anterior Pituitary ([9]; 0.1 mg/kg): 33.70 pmol/30 min./mg protein
ODC activities, Bone Marrow ([9]; 0.1 mg/kg): 45.80 pmol/30 min./mg protein
ODC activities, Lymph Nodes ([9]; 0.1 mg/kg): 107.30 pmol/30 min./mg protein
ODC activities, Spleen ([9]; 0.1 mg/kg): 34.62 pmol/30 min./mg protein
ODC activities, Thymus ([9]; 0.1 mg/kg): 171.40 pmol/30 min./mg protein
ODC activities, Adrenal Medulla ([9]; 0.5 mg/kg): 95.0 pmol/30 min./mg protein
ODC activities, Anterior Pituitary ([9]; 0.5 mg/kg): 41.20 pmol/30 min./mg protein
ODC activities, Bone Marrow ([9]; 0.5 mg/kg): 43.40 pmol/30 min./mg protein
ODC activities, Lymph Nodes ([9]; 0.5 mg/kg): 103.90 pmol/30 min./mg protein
ODC activities, Spleen ([9]; 0.5 mg/kg): 37.96 pmol/30 min./mg protein
ODC activities, Thymus ([9]; 0.5 mg/kg): 177.0 pmol/30 min./mg protein
NOAEL at 672 h ([10]; no toxic effect level, 4 weeks, read-out: NTEL (4 weeks) dogs): 0.2 mg/kg/day
percent change from control at 0.01 mg/kg/day ([4]; Mus musculus, Splenic lymphocyte, po, Test B, 0.01 mg/kg/day p.o., read-out: IgM % of control): -49%
percent change from control at 0.1 mg/kg/day ([4]; Mus musculus, Splenic lymphocyte, po, Test B, 0.1 mg/kg/day p.o., read-out: IgM % of control): -26%
percent change from control at 1 mg/kg/day ([4]; Mus musculus, Splenic lymphocyte, po, Test B, 1 mg/kg/day p.o., read-out: IgM % of control): -1%
IgM (PFC x 10^3 per spleen) ([4]; Test B, 0.01 mg/kg/day p.o.): 167.2 PFC x 10^3 per spleen
IgM (PFC x 10^3 per spleen) ([4]; Test B, 0.1 mg/kg/day p.o.): 244.4 PFC x 10^3 per spleen
IgM (PFC x 10^3 per spleen) ([4]; Test B, 1 mg/kg/day p.o.): 327.0 PFC x 10^3 per spleen
reduction of IgM titre ([4]; combination: Cyclosporine 60 mg/kg/day p.o. and Compound C 0.1 mg/kg/day p.o.): 63%
ED50 [5]: 0.001 mg/kg
Weight lymph node ([6]; 0.001 mg/kg/day, control ca 33 mg): 24 mg
Percentage Difference ([6]; 0.001 mg/kg/day, versus control ca 33 mg): -28%
Weight lymph node ([6]; 0.01 mg/kg/day, control ca 33 mg): 19 mg
Percentage Difference ([6]; 0.01 mg/kg/day, versus control ca 33 mg): -42%
Weight lymph node ([6]; 0.1 mg/kg/day, control ca 33 mg): 18 mg
Percentage Difference ([6]; 0.1 mg/kg/day, versus control ca 33 mg): -45%

Cc1[nH]c2cccc3c2c1C[C@@H]1[C@@H]3C[C@H](NC(=O)C(C)(C)C)CN1C [Compound E, (5R,8S,10R)-2,6-dimethyl-8α-pivaloylamino-ergoline]
dpm x 10^3/10 cells ± SD ([11]; 3H thymidine incorporation): 103218 ± 21497 dpm x 10^3/10 cells
inhibition at 5 mg/kg ([11]; Mus musculus, Lymphocyte, sc, 120 h, read-out: inhibited the response): ~21%
NOAEL at 672 h ([10]; over 4 weeks, Beagle dogs, read-out: Well tolerated dose): ≥ 3 mg/kg/day
Weight lymph node ([6]; 5 mg/kg/day, control ca 55 mg): ca 39 mg
Percentage Difference ([6]; 5 mg/kg/day, versus control ca 55 mg): -41%
